The source of these data is PMC7597410, “Targeting breast cancer metabolism with a novel inhibitor of mitochondrial ATP synthesis” (Oncotarget, 2020).

The structures appear in SMILES notation. Some results are limits rather than exact numbers.

The target in the assay is T1, mitochondrial ATP synthase subunit alpha (α-F1-ATP synthase, ATP5A) (Homo sapiens, UniProt P25705).
T1 construct: gene ATP5F1A; purified recombinant human α-F1-ATP synthase (CusaBio)
The assay can be described thus: DSF Tm increase with purified recombinant α subunit ([…]~[…] CADD522, no Kd); the EC50 is from CETSA in MDA-MB-231 lysate; immunocaptured ATP synthase also inhibited at […]~[…]. The format is binding.

T1 sequence (P25705 44-553): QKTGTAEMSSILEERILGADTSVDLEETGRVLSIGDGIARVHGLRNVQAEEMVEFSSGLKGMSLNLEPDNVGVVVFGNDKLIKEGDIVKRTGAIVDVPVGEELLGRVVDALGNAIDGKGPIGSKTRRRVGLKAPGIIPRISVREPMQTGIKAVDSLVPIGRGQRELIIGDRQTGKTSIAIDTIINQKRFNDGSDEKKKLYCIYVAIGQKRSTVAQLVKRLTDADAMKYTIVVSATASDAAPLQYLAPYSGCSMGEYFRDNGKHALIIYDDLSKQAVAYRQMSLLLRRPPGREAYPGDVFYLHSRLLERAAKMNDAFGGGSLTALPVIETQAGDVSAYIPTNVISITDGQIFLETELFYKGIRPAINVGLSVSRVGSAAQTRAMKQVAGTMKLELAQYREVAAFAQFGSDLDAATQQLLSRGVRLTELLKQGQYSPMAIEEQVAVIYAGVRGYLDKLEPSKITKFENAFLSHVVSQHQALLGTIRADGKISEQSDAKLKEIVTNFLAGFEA

What is called EC50 is the concentration giving half of the maximal effect. On to `O=C(O)C1C2C=CC(C2)C1C(=O)Nc1ccc(Cl)c(Cl)c1` (stereo not shown) [CADD522], for which the EC50 was less than 140 nM.
